The values below come from paper PMC9687610, “Adenosine-Mimicking Derivatives of 3-Aminopyrazine-2-Carboxamide: Towards Inhibitors of Prolyl-tRNA Synthetase with Antimycobacterial Activity” (Biomolecules, 2022).

Where only a bound is given, the exact number is not on record here.

The test system of data set [1] is Pseudomonas aeruginosa CCM 3955 (ATCC 27853). The experiment in a line: Antibacterial microdilution broth (EUCAST), PA. It counts as cell-based. The following applies: read after 24 h.
Data set [2] has as its system Candida krusei CCM 8271 (ATCC 6258). The experiment in a line: Antifungal microdilution broth (EUCAST), CK. It counts as cell-based. The settings on record: read after 24 h; read-out: CK MIC. In general terms: Broth dilution looks for growth in wells or tubes with falling amounts of substance.
In data set [3] the test system is Klebsiella pneumoniae CCM 4415 (ATCC 10031). The settings on record: 24 h.
The test system of data set [4] is Mycobacterium tuberculosis H37Ra ITM-M006710 (ATCC 9431). Kind of data set: Microplate Alamar Blue Assay (MABA), Mtb H37Ra. It is filed as cell-based. The settings on record: MABA, Middlebrook 7H9 broth pH 6.6, resazurin after 120 h.
Data set [5] deals with Aspergillus fumigatus ATCC 204305. Kind of data set: Antifungal microdilution broth (EUCAST), AF. It counts as cell-based. The settings on record: read after 24 h; read-out: AF MIC.
Data set [6] deals with Mycobacterium smegmatis DSM 43465 (ATCC 607). The experiment in a line: Microplate Alamar Blue Assay (MABA), M. smegmatis. It counts as cell-based. The following applies: MABA, resazurin after 48 h.
Data set [7] deals with Staphylococcus aureus subsp. aureus CCM 4223 (ATCC 29213). Kind of data set: Antibacterial microdilution broth (EUCAST), SA. It is filed as cell-based. The following applies: read after 24 h; read-out: SA MIC.
Data set [8] deals with M. aurum DSM 43999 (ATCC 23366). The experiment in a line: Microplate Alamar Blue Assay (MABA), M. aurum. It counts as cell-based. The following applies: MABA, resazurin after 72 h. (Alamar Blue is a resazurin reagent that responds to reducing activity.)
For data set [9], the system named is Trichophyton interdigitale CCM 8377 (ATCC 9533). The experiment in a line: Antifungal microdilution broth (EUCAST), TI. It counts as cell-based. The settings on record: read after 72 h.
The subject of data set [10] is Candida tropicalis CCM 8264 (ATCC 750). The experiment in a line: Antifungal microdilution broth (EUCAST), CT. It counts as cell-based. The following applies: read after 24 h; read-out: CT MIC.
For data set [11], the system named is Enterococcus faecalis CCM 4224 (ATCC 29212). Kind of data set: Antibacterial microdilution broth (EUCAST), EF. It is filed as cell-based. The following applies: read after 24 h; read-out: EF MIC.
Data set [12] concerns Acinetobacter baumannii DSM 30007 (ATCC 19606). Kind of data set: Antibacterial microdilution broth (EUCAST), ACI. It is filed as cell-based. The following applies: read after 24 h; read-out: ACI MIC.
Data set [13] has as its system Lichtheimia corymbifera CCM 8077. The experiment in a line: Antifungal microdilution broth (EUCAST), LC. The following applies: read after 24 h; read-out: LC MIC. It counts as cell-based.
The subject of data set [14] is Aspergillus flavus CCM 8363. Kind of data set: Antifungal microdilution broth (EUCAST), AFla. The settings on record: read after 24 h; read-out: AFla MIC. It is filed as cell-based.
The subject of data set [15] is Staphylococcus aureus subsp. aureus methicillin-resistant (MRSA) CCM 4750 (ATCC 43300). The experiment in a line: Antibacterial microdilution broth (EUCAST), MRSA. It counts as cell-based. The settings on record: read after 24 h; read-out: MRSA MIC.
Data set [16] has as its system Candida albicans CCM 8320 (ATCC 24433). Kind of data set: Antifungal microdilution broth (EUCAST), CA. It is filed as cell-based. The following applies: read after 24 h; read-out: CA MIC.
Data set [17] deals with Candida parapsilosis CCM 8260 (ATCC 22019). The experiment in a line: Antifungal microdilution broth (EUCAST), CP. The following applies: read after 24 h; read-out: CP MIC. It counts as cell-based.
Data set [18] deals with Escherichia coli CCM 3954 (ATCC 25922). Kind of data set: Antibacterial microdilution broth (EUCAST), EC. It is filed as cell-based. The following applies: read after 24 h; read-out: EC MIC.

In general, MIC refers to the least concentration at which growth counts as inhibited. Take `COC(=O)c1nccnc1NC(=O)c1ccccc1` [Compound 1e]: the “PA MIC” value in data set [1] is listed as over 500 µM. Moreover, the MIC in data set [2], in data set [5], in data set [7], in data set [10], in data set [11] and in data set [12] was over 500 µM throughout. Further, the MIC in data set [13], in data set [14], in [15], in data set [16], in [17] and in data set [18] was over 500 µM each time. For the same compound, in data set [3], the “KP MIC” value is listed as over 500 µM. Also, the “Mtb H37Ra MIC” value in data set [4] was at least 500 µg/mL. In addition, in data set [6], the “M. smegmatis MIC” value was 125 µg/mL. Further, the “M. aurum MIC” value in data set [8] is listed as 250 µg/mL. The “TI MIC” value in [9] was over 500 µM.
